Measured values as given in ChEMBL document CHEMBL3596106, “Structure-activity relationship study of E6 as a novel necroptosis inducer” (Bioorg Med Chem Lett, 2015).
Calls of active or inactive are those of the source.

These compounds were tested on Jurkat (assay: Induction of necroptosis in human Jurkat T cells incubated for 24 hrs in presence of caspase inhibitor zVAD.fmk by ATP-based cell viability assay). Conditions: not given.
Format: functional

SMILES | Activity
Oc1ccccc1CNc1ccc(C2CCCCC2)cc1 | Active

What follows are compounds tested on Jurkat (assay: Induction of necroptosis in human Jurkat T cells incubated for 24 hrs in presence of Nec-8 by ATP-based cell viability assay). Conditions: not given.
Format: functional

SMILES | Activity
Oc1ccccc1CNc1ccc(C2CCCCC2)cc1 | inactive

These compounds were tested on Jurkat (Homo sapiens) (assay: Potency index, ratio of EC50 for E6 to EC50 for test compound for induction of necroptosis in human Jurkat T cells incubated for 24 hrs by ATP-based cell viability assay). Conditions: not given.

SMILES | Ratio EC50
CCOc1ccc(-c2ccc(NCc3ccccc3O)cc2)cc1 | 17
Oc1ccccc1CNc1ccc(-c2ccccc2)cc1 | 5
COc1ccc(-c2ccc(NCc3ccccc3O)cc2)cc1 | 17

The compounds below were run on Jurkat (assay: Induction of necroptosis in human Jurkat T cells incubated for 24 hrs by ATP-based cell viability assay). Conditions: Homo sapiens, Jurkat, 24 h; read-out: EC50.
Format: functional

SMILES | EC50 [µM]
Oc1ccccc1CNc1ccc(-c2ccc(Cl)cc2)cc1 | 2.39
Cc1ccc(-c2ccc(NCc3ccccc3O)cc2)cc1 | 3.79
CCOc1ccc(-c2ccc(NCc3ccccc3O)cc2)cc1F | 2.53
Oc1ccccc1CNc1ccc(-c2ccccc2)cc1F | 5.35
Oc1ccccc1CNc1ccc(-c2ccc(F)cc2)cc1 | 3.86
CCCc1ccc(-c2ccc(NCc3ccccc3O)cc2)cc1 | 2.39
COc1ccc(-c2ccc(NCc3ccccc3O)cn2)cc1 | 4.76
Cc1cccc(-c2ccc(NCc3ccccc3O)cc2)c1 | 9.19
CCOc1ccc(-c2ccc(NCc3ccccc3O)cc2)cc1 | 0.52
CCSc1ccc(-c2ccc(NCc3ccccc3O)cn2)cc1 | 1.92
Oc1ccccc1CNc1ccc(C2CCCCC2)cc1 | 8.8
Oc1ccccc1CNc1ccc(-c2ccccc2)cc1 | 1.82
Cc1ccccc1-c1ccc(NCc2ccccc2O)cc1 | 5.22
Oc1ccccc1CNc1ccc(-c2cccc(Cl)c2)cc1 | 6.2
Oc1ccccc1CNc1ccc(-c2cccc(F)c2)cc1 | 2.02
Cc1cc(NCc2ccccc2O)ccc1-c1ccccc1 | 8.61
Oc1ccccc1CNc1ccc(-c2ccc(F)cc2)nc1 | 2.59
CC(C)Oc1ccc(-c2ccc(NCc3ccccc3O)cc2)cc1 | 5.94
CCSc1ccc(-c2ccc(NCc3ccccc3O)cc2)cc1 | 1.98
Oc1ccccc1CNc1ccc(-c2ccccc2)c(F)c1 | 2.85
COc1ccc(-c2ccc(NCc3ccccc3O)cc2)cc1 | 0.58
Oc1ccccc1CNc1ccc(-c2ccccc2F)cc1 | 2.15
Oc1ccccc1CNc1ccc(-c2ccccc2)nc1 | 0.84

Same assay, conditions: jurkat

SMILES | EC50
Oc1ccccc1CNc1ccc(-c2cccc(OC(F)(F)F)c2)cc1 | Not Active
Oc1cc(C(F)(F)F)ccc1CNc1ccc(C2CCCCC2)cc1 | Not Active
Cc1cc(-c2ccccc2)ccc1NCc1ccccc1O | Not Active
CC(C)(C)c1ccc(-c2ccc(NCc3ccccc3O)cc2)cc1 | Not Active
Oc1ccccc1CNc1nc(-c2ccccc2)cs1 | Not Active
CCCOc1ccc(-c2ccc(NCc3ccccc3O)cc2)cc1 | Not Active
O=[N+]([O-])c1ccc(NCc2ccccc2O)cc1 | Not Active
Oc1ccccc1CNc1ccc(-c2ccc(C(F)(F)F)cc2)cc1 | Not Active
N#Cc1ccccc1-c1ccc(NCc2ccccc2O)cc1 | Not Active
CC(Nc1ccc(C2CCCCC2)cc1)c1ccccc1O (stereo not given) | Not Active
Oc1ccccc1CNc1ccc(-c2ccc(N3CCOCC3)cc2)nc1 | Not Active
CCOc1cccc(-c2ccc(NCc3ccccc3O)cc2)c1 | Not Active
Oc1cc(I)ccc1CNc1ccc(C2CCCCC2)cc1 | Not Active
CC(=O)c1ccc(-c2ccc(NCc3ccccc3O)cc2)cc1 | Not Active
Cc1ccc(-c2ccc(NCc3ccccc3O)cn2)cc1 | Not Active
COc1ccc(CNc2ccc(C3CCCCC3)cc2)c(O)c1 | Not Active
Oc1ccccc1Nc1ccc(C2CCCCC2)cc1 | Not Active
Oc1ccccc1CNc1ccc(-c2ccc(Cl)cc2)nc1 | Not Active
c1ccc(CNc2ccc(C3CCCCC3)cc2)cc1 | Not Active
Oc1ccccc1CNc1ccc(N2CCCCC2)cc1 | Not Active
Oc1ccccc1CNc1ccc(N2CCCC2)cc1 | Not Active
Oc1cccc(-c2ccc(NCc3ccccc3O)cc2)c1 | Not Active
CCOc1ccc(-c2ccc(NCc3ccccc3O)cn2)cc1 | Not Active
Oc1ccccc1CNc1ccc(-c2ccc(OC(F)(F)F)cc2)cc1 | Not Active
Oc1ccccc1CNc1ccc(N2CCNCC2)cc1 | Not Active
CN(Cc1ccccc1O)c1ccc(C2CCCCC2)cc1 | Not Active

SMILES | EC50
Oc1ccccc1CCNc1ccc(C2CCCCC2)cc1 | Not Active
N#Cc1ccc(-c2ccc(NCc3ccccc3O)cc2)cc1 | Not Active
Oc1ccccc1CNc1ccc(F)cc1 | Not Active
Cc1ccc(O)c(CNc2ccc(C3CCCCC3)cc2)c1 | Not Active
Cc1ccc(CNc2ccc(C3CCCCC3)cc2)c(O)c1 | Not Active
COc1cccc(-c2ccc(NCc3ccccc3O)cc2)c1 | Not Active
Oc1ccccc1CNc1ccc(-c2ccccc2)cn1 | Not Active
Oc1ccccc1CCc1ccc(C2CCCCC2)cc1 | Not Active
Oc1ccccc1CNc1cc(-c2ccccc2)no1 | Not Active
Oc1ccccc1CNc1ccc(-c2cccc(OCc3ccccc3)c2)cc1 | Not Active
CN1CCN(c2ccc(NCc3ccccc3O)cc2)CC1 | Not Active
Oc1ccccc1NCc1ccc(C2CCCCC2)cc1 | Not Active
COc1ccccc1-c1ccc(NCc2ccccc2O)cc1 | Not Active
Oc1ccc(-c2ccc(NCc3ccccc3O)cc2)cc1 | Not Active
Oc1ccccc1CNc1ccc(-c2ccccc2Cl)cc1 | Not Active
Oc1ccc(CNc2ccc(C3CCCCC3)cc2)cc1 | Not Active
COc1ccccc1CNc1ccc(C2CCCCC2)cc1 | Not Active
Oc1cc(-c2ccccc2)ccc1CNc1ccc(C2CCCCC2)cc1 | Not Active
Oc1cc(F)ccc1CNc1ccc(C2CCCCC2)cc1 | Not Active
O=C(Nc1ccc(C2CCCCC2)cc1)c1ccccc1O | Not Active
Cc1cccc(CNc2ccc(C3CCCCC3)cc2)c1O | Not Active
Oc1ccccc1CNc1ccccc1 | Not Active
Oc1ccccc1CNc1ccc(-c2ccc(-c3ccccc3)cc2)cc1 | Not Active
COC(=O)c1ccc(-c2ccc(NCc3ccccc3O)cc2)cc1 | Not Active
Oc1ccccc1/C=N/c1ccc(C2CCCCC2)cc1 | Not Active

The compounds below were run on Jurkat (assay: Induction of necroptosis in human Jurkat T cells incubated for 24 hrs in presence of RIPK1 inhibitor Nec-1 by ATP-based cell viability assay). Conditions: not given.
Format: functional

SMILES | Activity
Oc1ccccc1CNc1ccc(C2CCCCC2)cc1 | Active
